Assay results as given in US11230541B2, “Heterocyclic compound” (Takeda Pharmaceutical Company Limited, priority 2017, dated 2022).

Biological target: T1, NMDA receptor containing the NR2B subunit (Rattus norvegicus, UniProt Q00960)
T1 construct: host or cells: rodents, in vivo
Test: not given
Conditions: rodents; cited from earlier work

T1 sequence (Q00960 27-1482, other chains not shown): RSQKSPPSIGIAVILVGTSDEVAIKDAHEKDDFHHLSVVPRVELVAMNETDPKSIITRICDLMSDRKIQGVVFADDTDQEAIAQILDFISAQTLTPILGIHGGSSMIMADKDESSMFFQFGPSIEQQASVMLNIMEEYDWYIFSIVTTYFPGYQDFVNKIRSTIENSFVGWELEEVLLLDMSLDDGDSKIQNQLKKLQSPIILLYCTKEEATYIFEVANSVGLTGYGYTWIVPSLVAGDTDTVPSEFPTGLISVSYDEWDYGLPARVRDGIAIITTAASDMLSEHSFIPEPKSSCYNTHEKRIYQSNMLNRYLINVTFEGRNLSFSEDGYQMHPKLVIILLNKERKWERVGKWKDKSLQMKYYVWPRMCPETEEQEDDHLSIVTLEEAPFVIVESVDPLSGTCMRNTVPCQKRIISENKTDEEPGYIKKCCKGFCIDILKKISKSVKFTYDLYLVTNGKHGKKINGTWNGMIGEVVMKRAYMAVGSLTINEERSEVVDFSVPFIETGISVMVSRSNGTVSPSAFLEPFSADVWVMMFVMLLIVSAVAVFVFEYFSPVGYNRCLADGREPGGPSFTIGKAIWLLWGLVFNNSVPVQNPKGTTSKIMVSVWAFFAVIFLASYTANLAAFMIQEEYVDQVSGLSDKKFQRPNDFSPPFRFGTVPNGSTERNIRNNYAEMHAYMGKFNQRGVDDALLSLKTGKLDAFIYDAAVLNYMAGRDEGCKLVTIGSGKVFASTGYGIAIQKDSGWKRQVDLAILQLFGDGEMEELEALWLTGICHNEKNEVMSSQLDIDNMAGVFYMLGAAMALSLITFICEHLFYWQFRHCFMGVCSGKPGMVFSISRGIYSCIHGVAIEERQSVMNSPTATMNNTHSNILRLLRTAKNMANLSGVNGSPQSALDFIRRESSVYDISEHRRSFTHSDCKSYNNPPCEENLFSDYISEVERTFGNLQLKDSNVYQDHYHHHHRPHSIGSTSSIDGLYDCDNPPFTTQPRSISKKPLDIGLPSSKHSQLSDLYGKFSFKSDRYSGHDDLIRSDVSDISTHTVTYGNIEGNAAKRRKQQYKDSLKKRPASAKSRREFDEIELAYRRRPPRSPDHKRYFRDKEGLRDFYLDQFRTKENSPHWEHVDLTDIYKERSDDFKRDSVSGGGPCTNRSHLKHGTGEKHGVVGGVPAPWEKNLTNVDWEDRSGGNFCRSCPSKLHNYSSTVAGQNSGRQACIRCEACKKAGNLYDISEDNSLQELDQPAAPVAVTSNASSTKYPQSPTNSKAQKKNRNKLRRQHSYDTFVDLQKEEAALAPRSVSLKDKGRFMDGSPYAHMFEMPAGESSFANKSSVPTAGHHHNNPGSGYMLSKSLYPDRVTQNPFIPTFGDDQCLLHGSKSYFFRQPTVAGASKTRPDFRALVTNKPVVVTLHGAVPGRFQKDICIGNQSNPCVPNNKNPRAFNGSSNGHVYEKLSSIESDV

For C[C@@H]([C@@H](O)c1ccc(O)cc1)N1CCC(O)(c2ccccc2)CC1 [CP-101, 606], the “number of occurrence and depth of cortical spreading depression” value is given as “suppress the number of occurrence and the depth of cortical spreading depression”.
In the case of C[C@@H](CN1CCC(Cc2ccccc2)CC1)[C@@H](O)c1ccc(O)cc1 [Ro25-6981], the “number of occurrence and depth of cortical spreading depression” value is listed as “suppress the number of occurrence and the depth of cortical spreading depression”.

Biological target: NMDA receptor containing the NR2B subunit (Homo sapiens, UniProt Q13224)
Test: not given
Conditions: continuous intravenous administration; cited from earlier work

NMDA receptor containing the NR2B subunit (Homo sapiens, UniProt Q13224), sequence (Q13224 27-1484, other chains not shown): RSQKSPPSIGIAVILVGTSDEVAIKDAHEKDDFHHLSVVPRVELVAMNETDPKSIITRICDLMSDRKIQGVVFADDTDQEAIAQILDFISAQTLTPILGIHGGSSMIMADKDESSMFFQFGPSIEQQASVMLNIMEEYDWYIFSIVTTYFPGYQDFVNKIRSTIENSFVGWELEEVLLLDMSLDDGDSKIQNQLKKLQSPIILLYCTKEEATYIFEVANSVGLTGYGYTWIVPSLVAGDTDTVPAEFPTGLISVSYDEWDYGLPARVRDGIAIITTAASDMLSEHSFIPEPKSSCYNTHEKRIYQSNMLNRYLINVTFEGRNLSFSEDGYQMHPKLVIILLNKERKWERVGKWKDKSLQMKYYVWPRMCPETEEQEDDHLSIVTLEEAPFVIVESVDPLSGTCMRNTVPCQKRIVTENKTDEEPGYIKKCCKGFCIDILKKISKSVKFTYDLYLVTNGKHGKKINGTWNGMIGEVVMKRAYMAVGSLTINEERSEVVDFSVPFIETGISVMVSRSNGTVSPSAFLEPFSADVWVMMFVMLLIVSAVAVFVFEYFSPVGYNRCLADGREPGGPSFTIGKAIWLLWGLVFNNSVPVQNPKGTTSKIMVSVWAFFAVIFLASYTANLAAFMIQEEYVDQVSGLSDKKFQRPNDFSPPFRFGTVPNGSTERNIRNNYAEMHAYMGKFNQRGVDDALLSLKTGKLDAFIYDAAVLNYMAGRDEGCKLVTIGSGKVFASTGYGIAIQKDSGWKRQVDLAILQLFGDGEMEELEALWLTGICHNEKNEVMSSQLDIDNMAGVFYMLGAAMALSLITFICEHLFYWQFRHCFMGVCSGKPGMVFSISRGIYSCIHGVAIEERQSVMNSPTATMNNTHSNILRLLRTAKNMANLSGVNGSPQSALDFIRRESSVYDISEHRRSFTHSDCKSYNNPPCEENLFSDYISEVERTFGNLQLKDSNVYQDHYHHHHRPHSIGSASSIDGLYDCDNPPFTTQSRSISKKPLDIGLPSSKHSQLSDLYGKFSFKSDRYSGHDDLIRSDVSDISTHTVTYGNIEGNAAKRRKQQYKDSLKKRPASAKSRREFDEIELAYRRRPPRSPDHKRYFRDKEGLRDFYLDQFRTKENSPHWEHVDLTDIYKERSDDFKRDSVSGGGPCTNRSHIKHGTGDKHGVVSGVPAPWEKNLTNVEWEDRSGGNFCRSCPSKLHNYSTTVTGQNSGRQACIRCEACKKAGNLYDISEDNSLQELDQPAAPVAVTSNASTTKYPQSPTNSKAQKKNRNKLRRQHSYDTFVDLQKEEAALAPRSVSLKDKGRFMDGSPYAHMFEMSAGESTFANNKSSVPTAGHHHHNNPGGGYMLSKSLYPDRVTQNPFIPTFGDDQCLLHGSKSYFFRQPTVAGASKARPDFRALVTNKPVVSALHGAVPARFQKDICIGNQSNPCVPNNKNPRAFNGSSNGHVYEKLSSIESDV

For C[C@@H]([C@@H](O)c1ccc(O)cc1)N1CCC(O)(c2ccccc2)CC1 [CP-101, 606], the treatment resistant-depression symptom is given as “significantly improves treatment resistant-depression symptom”.

Biological target: T2, NMDA receptor composed of four subunits including 2 sets of heterodimers of NR1 and NR2B (Homo sapiens, UniProt Q13224)
T2 construct: host or cells: HEK293 (tetracycline-induced expression)
Test: NR2B Ca2+ influx assay (FLIPR, Fluo-4) in HEK293 cells expressing human GRIN1 and GRIN2B
Assay type: cell-based
Conditions: HEK293, 10 μM final compound concentration, glutamic acid/glycine-induced Ca2+ influx, read-out: inhibitory rate (10 μM compound concentration)
Method in brief: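 Inhibition rate was calculated from 5-min cumulative Fluo-4 signal (FLIPR, 3-s reads), using agonist-free buffer wells as 100% inhibition. Compound, 10 μM final, was applied 15 min before adding buffer with 30 μM glutamic acid and glycine to HEK293 cells with tetracycline-induced human NR1/NR2B, in HEPES pH 7.2 with 1.8 mM CaCl2.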

T2 sequence (Q13224 27-1484, other chains not shown): as above

First: COc1ccc2nc(C)n(C)c2c1CNC(=O)c1ccc(Cl)cc1 [Example 249, 4-chloro-N-((6-methoxy-1,2-dimethyl-1H-benzimidazol-7-yl)methyl)benzamide]
Second: COc1ccc2nc(C)n(C)c2c1CNC(=O)c1ccc(OC(F)(F)F)cc1 [Example 252, N-((6-methoxy-l,2-dimethyl-1H-benzimidazol-7-yl)methyl)-4-(trifluoromethoxy)-benzamide]
The inhibition at 10 µM of the first is lower: 57% for the first, 88% for the second.

First: COc1ccc2nc(C)n(C)c2c1CNC(=O)c1ccc(C(F)F)c(Cl)c1 [Example 250]
Second: COc1ccc2nc(C)n(C)c2c1CNC(=O)c1ccc(OC(F)F)c(F)c1 [Example 253, 4-(difluoromethoxy)-3-fluoro-N-((6-methoxy-1,2-dimethyl-1H-benzimidazol-7-yl)methyl)benzamide]
The inhibition at 10 µM of the first is lower: 58% for the first, 84% for the second.

First: COc1ccc2nc(C)n(C)c2c1CNC(=O)c1cnc(OC(F)F)c(F)c1 [Example 251, 6-(difluoromethoxy)-5-fluoro-N-((6-methoxy-1,2-dimethyl-1H-benzimidazol-7-yl)methyl)nicotinamide]
Second: COc1ccc2nc(C)n(C)c2c1CNC(=O)c1ccc(OC(F)F)nc1 [Example 254, 6-(difluoromethoxy)-N-((6-methoxy-1,2-dimethyl-lH-benzimidazol-7-yl)methyl)nicotinamide]
The inhibition at 10 µM of the first is higher: 76% for the first, 69% for the second.

First: COc1ccc2ncn(C)c2c1CNC(=O)Nc1ccccc1 [Example 255, 1-((6-methoxy-1-methyl-1H-benzimidazol-7-yl)methyl)-3-phenylurea]
Second: COc1ccc2ncn(C)c2c1CNC(=O)Nc1ccc(C)cc1 [Example 256, 1-((6-methoxy-1-methyl-1H-benzimidazol-7-yl)methyl)-3-(4-methylphenyl)urea]
The inhibition at 10 µM of the first is lower: 67% for the first, 90% for the second.

Going from COc1ccc2ncn(C)c2c1CNC(=O)Nc1ccc(Cl)cc1 [Example 257, 1-(4-chlorophenyl)-3-((6-methoxy-1-methyl-1H-benzimidazol-7-yl)methyl)urea] to COc1ccc(NC(=O)NCc2c(OC)ccc3ncn(C)c23)cc1 [Example 266, 1-((6-methoxy-1-methyl-lH-benzimidazol-7-yl)methyl)-3-(4-methoxyphenyl)urea], the inhibition at 10 µM falls from 90% to 58%.

First: COc1ccc2ncn(C)c2c1CNC(=O)Nc1ccc(F)c(F)c1 [Example 258, 1-(3,4-difluorophenyl)-3-((6-methoxy-1-methyl-1H-benzimidazol-7-yl)methyl)urea]
Second: COc1ccc2ncn(C)c2c1CNC(=O)Nc1ccc(C(F)(F)F)c(F)c1 [Example 261, 1-(3-fluoro-4-(trifluoromethyl)-phenyl)-3-{(6-methoxy-1-methyl-1H-benzimidazol-7-yl)methyl)urea]
The inhibition at 10 µM of the first is lower: 85% for the first, 92% for the second.

First: COc1ccc(NC(=O)NCc2c(OC)ccc3ncn(C)c23)c(F)c1F [Example 259, 1-(2,3-difluoro-4-methoxyphenyl)-3-((6-methoxy-1-methyl-1H-benzimidazol-7-yl)methyl)urea]
Second: COc1ccc2ncn(C)c2c1CNC(=O)Nc1ccc(C(F)(F)F)cc1F [Example 260, 1-(2-fluoro-4-(trifluoromethyl)-phenyl)-3-((6-methoxy-1-methyl-1H-benzimidazol-7-yl)methyl)urea]
The inhibition at 10 µM of the first is lower: 87% for the first, 92% for the second.

Compared with COc1ccc2ncn(C)c2c1CNC(=O)Nc1ccc(C(F)(F)F)cc1 [Example 262, 1-((6-methoxy-1-methyl-1H-benzimidazol-7-yl)methyl)-3-(4-(trifluoromethyl)-phenyl)urea], COc1ccc2ncn(C)c2c1CNC(=O)Nc1ccc(F)c(C(F)(F)F)c1 [Example 267, 1-(4-fluoro-3-(trifluoromethyl)-phenyl)-3-((6-methoxy-1-methyl-lH-benzimidazol-7-yl)methyl)urea] is lower in inhibition at 10 µM: 91% for the first, 74% for the second.

Compared with Cc1ccc2[nH]nnc2c1CNC(=O)c1ccc(OC(F)F)c(F)c1 [Example 263, 4-(difluoromethoxy)-3-fluoro-N-((5-methyl-1H-benzotriazol-4-yl)methyl)benzamide], Cc1ccc2[nH]nnc2c1CNC(=O)c1cnc(OC(F)F)c(F)c1 [Example 268, 6-(difluoromethoxy)-5-fluoro-N-((5-methyl-1H-benzotriazol-4-y1)methyl)nicotinamide] is lower in inhibition at 10 µM: 98% for the first, 97% for the second.

Going from COc1ccc(C(=O)NCc2c(C)ccc3[nH]nnc23)cc1 [Example 264, 4-methoxy-N-((5-methyl-1H-benzotriazol-4-yl)methyl)benzamide] to Cc1ccc2[nH]nnc2c1CNC(=O)c1ccc(OC(F)F)cc1 [Example 265, 4-(difluoromethoxy)-N-((5-methyl-1H-benzotriazol-4-yl)methyl)benzamide], the inhibition at 10 µM rises from 83% to 97%.

First: Cc1n[nH]c2cccc(CNC(=O)c3ccc(OC(F)(F)F)c(F)c3)c12 [Example 269, 3-fluoro-N-((3-methyl-1H-indazol-4-yl)methyl)-4-(trifluoromethoxy)-benzamide]
Second: O=C(NCc1cccc2[nH]nc(Br)c12)c1ccc(OC(F)(F)F)c(F)c1 [Example 272, N-[(3-bromo-1H-indazol-4-yl)methyl]-3-fluoro-4-(trifluoromethoxy)-benzamide]
The inhibition at 10 µM of the first is higher: 87% for the first, 59% for the second.

First: COc1c(F)cc(C(=O)NCc2cccc3[nH]nc(C)c23)cc1F [Example 270, 3,5-difluoro-4-methoxy-N-((3-methyl-1H-indazol-4-yl)methyl)benzamide]
Second: Cc1n[nH]c2cccc(CNC(=O)c3cnc(OC(F)F)c(F)c3)c12 [Example 271, 6-(difluoromethoxy)-5-fluoro-N-((3-methyl-1H-indazol-4-yl)methyl)nicotinamide]
The inhibition at 10 µM of the first is lower: 67% for the first, 82% for the second.

Going from O=C(NCc1c(F)ccc2[nH]ncc12)c1ccc(OC(F)(F)F)cc1 [Example 273, N-[(5-fluoro-1H-indazol-4-yl)methyl]-4-(trifluoromethoxy)-benzamide] to COc1ccc2ncn(C)c2c1CNC(=O)c1ccc(CC(F)(F)F)cc1 [Example 278, N-[(6-methoxy-1-methyl-1H-benzimidazol-7-yl)methyl]-4-(2,2,2-trifluoroethyl)-benzamide], the inhibition at 10 µM falls from 93% to 77%.

First: Cn1nnc2cccc(CNC(=O)c3ccc(OC(F)(F)F)c(F)c3)c21 [Example 274, 3-fluoro-N-[(1-methyl-1H-benzotriazol-7-yl)methyl]-4-(trifluoromethoxy)-benzamide]
Second: Cn1nnc2cccc(CNC(=O)c3cnc(OC(F)F)c(F)c3)c21 [Example 275, 6-(difluoromethoxy)-5-fluoro-N-[(1-methyl-1H-benzotriazol-7-yl)methyl]pyridine-3-carboxamide]
The inhibition at 10 µM of the first is higher: 93% for the first, 82% for the second.

First: COc1ccc2ncn(C)c2c1CNC(=O)c1ccc(OC(F)F)nc1 [Example 276, 6-(difluoromethoxy)-N-[(6-methoxy-l-methyl-1H-benzimidazol-7-yl)methyl]pyridine-3-carboxamide]
Second: COc1ccc2ncn(C)c2c1CNC(=O)c1ccc(OC(F)F)cc1F [Example 277, 4-(difluoromethoxy)-2-fluoro-N-[(6-methoxy-1-methyl-1H-benzimidazol-7-yl)methyl]benzamide]
The inhibition at 10 µM of the first is higher: 88% for the first, 63% for the second.

Going from COCc1ccc2ncn(C)c2c1CNC(=O)c1cc(F)c(OC)c(F)c1 [Example 279, 3,5-difluoro-4-methoxy-N-{[6-(methoxymethyl)-1-methyl-1H-benzimidazol-7-yl]methyl}benzamide] to COCc1ccc2ncn(C)c2c1CNC(=O)c1cnc(OC(F)F)c(F)c1 [Example 281, 6-(difluoromethoxy)-5-fluoro-N-{[6-(methoxymethyl)-1-methyl-lH-benzimidazol-7-yl]methyl}pyridine-3-carboxamide], the inhibition at 10 µM falls from 88% to 82%.

First: COCc1ccc2ncn(C)c2c1CNC(=O)c1ccc(C(F)(F)F)cc1 [Example 280, N-{[6-(methoxymethyl)-1-methyl-1H-benzimidazol-7-yl]methyl}-4-(trifluoromethyl)-benzamide]
Second: COCc1ccc2ncn(C)c2c1CNC(=O)c1csc(C(F)(F)F)c1 [Example 282, N-{[6-(methoxymethyl)-1-methyl-lH-benzimidazol-7-yl]methyl)-5-(trifluoromethyl)-thiophene-3-carboxamide]
The inhibition at 10 µM of the first is lower: 75% for the first, 76% for the second.

Compared with COCc1ccc2ncn(C)c2c1CNC(=O)c1ccc(OC(F)F)c(Cl)c1 [Example 283, 3-chloro-4-(difluoromethoxy)-N-{[6-(methoxymethyl)-1-methyl-1H-benzimidazol-7-yl]methyl}benzamide], COCc1ccc2ncn(C)c2c1CNC(=O)c1ccc(OC(F)(F)F)c(F)c1 [Example 284, 3-fluoro-N-{[6-(methoxymethyl)-1-methyl-1H-benzimidazol-7-yl]methyl}-4-(trifluoromethoxy)-benzamide] is higher in inhibition at 10 µM: 93% for the first, 95% for the second.

Test system: NMDA receptor
Test: not given
Conditions: continuous intravenous administration; cited from earlier work

For CNC1(c2ccccc2Cl)CCCCC1=O (stereo not shown) [ketamine], the “depression symptom accompanying major depression and bipolar disorder” value is listed as “improves depression symptom accompanying major depression and bipolar disorder rapidly and in a sustained manner”.
